# Experimental data as given in patent US12570655B2, “Cysteine covalent modifiers of AKT1 and uses thereof” (Terremoto Biosciences, Inc., priority 2023, dated 2026).
# Read-outs that look alike come from different tables or passages of the source.
# What was measured:
# Type in all cases: cell-based
# AKT1 E17K = biological target: T1, AKT1 E17K (Homo sapiens, UniProt P31749, E17K); assay: Live cell AKT1 E17K target engagement by NanoBRET competitive probe displacement; settings: HEK293 cells transfected with kinase-NanoLuciferase fusion, 2 h at 37° C.
# T1 construct: expressed in transfected cells; host or cells: HEK293
# Outline: (§1)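 IC50 reflects displacement of a fluorescent ATP-competitive tracer, dosed near its EC50, from kinase–NanoLuciferase fusions in live HEK293 cells. Cells were incubated with compound and tracer for 2 h at 37 °C, then E600/E460 BRET was read.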
# AKT2 = biological target: T2, AKT2 (Homo sapiens, UniProt P31751); assay: Live cell AKT2 target engagement by NanoBRET competitive probe displacement; settings: HEK293 cells transfected with kinase-NanoLuciferase fusion, 2 h at 37° C.
# T2 construct: expressed in transfected cells; host or cells: HEK293
# Outline: as §1
# AKT1 WT = biological target: T3, AKT1 WT (Homo sapiens, UniProt P31749); assay: Live cell AKT1 WT target engagement by NanoBRET competitive probe displacement; settings: HEK293 cells transfected with kinase-NanoLuciferase fusion, 2 h at 37° C.
# T3 construct: expressed in transfected cells; host or cells: HEK293
# Outline: as §1
# [1] = system: LAPC4 prostate cancer cells; assay: Antiproliferative effects in LAPC4 cells (CellTiter Glo); settings: LAPC4 cells (AKT1 E17K allele), read-out: LAPC4 proliferation IC50
# Outline: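 Seed 1,000 cells/well in IMDM/12% FBS/1% P/S; add compound dilutions (DMSO); incubate 72 h; read intracellular ATP with CellTiter Glo; fit luminescence to log(inhibitor)-response Hill curve for IC50.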
# T2 sequence (P31751 whole entry, the tested form may be a part): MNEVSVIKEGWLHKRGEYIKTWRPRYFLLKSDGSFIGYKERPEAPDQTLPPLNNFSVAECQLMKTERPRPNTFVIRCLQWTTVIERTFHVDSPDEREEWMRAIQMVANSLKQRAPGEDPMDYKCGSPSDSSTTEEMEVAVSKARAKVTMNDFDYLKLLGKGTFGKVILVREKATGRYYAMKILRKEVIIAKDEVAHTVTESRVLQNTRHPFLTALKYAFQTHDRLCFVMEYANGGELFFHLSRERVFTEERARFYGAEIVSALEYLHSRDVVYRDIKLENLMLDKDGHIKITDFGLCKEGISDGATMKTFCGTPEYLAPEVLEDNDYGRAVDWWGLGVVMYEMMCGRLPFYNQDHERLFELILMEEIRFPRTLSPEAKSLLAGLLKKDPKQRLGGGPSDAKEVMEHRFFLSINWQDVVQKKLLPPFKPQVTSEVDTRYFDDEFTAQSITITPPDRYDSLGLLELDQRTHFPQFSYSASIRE
# T1 sequence (P31749 whole entry E17K, the tested form may be a part): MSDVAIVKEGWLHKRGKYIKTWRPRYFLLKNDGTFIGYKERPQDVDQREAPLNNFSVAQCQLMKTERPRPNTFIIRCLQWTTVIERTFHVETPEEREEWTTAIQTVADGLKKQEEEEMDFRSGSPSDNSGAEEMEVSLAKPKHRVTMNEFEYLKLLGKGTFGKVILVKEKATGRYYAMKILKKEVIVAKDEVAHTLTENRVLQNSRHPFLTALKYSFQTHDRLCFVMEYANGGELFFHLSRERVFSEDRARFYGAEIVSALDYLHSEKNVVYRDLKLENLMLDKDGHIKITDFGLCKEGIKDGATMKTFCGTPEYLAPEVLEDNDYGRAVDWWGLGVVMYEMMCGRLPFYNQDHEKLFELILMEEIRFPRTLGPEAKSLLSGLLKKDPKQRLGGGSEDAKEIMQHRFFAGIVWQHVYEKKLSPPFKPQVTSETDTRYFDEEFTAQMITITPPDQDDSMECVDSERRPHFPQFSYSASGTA
# T3 sequence (P31749 whole entry, the tested form may be a part): as the sequence (P31749 whole entry E17K, the tested form may be a part) above, with K17E counted along it
SMILES,IC50 (AKT1 E17K) [nM],IC50 (AKT2) [nM],IC50 (AKT1 WT) [nM],IC50 ([1]; 72 h) [nM],"IC50 ([1]; Homo sapiens, LAPC4, 72 h) [nM]"
"C=CC(=O)N1CCCC(N[C@H]2CCc3cc(-n4c(-c5cccnc5N)nc5ccc(-n6cccn6)nc54)ccc32)C1 (single isomer, unassigned) [Example 124, 1-[(3*)-3-{[(1S)-5-[2-(2-aminopyridin-3-yl)-5-(pyrazol-1-yl)imidazo[4,5-b]pyridin-3-yl]-2,3-dihydro-1H-inden-1-yl]amino}piperidin-1-yl]prop-2-en-1-one]",99.2,1120,54.1,4860,
"C=CC(=O)N1CCCC(N[C@H]2CCc3cc(-n4c(-c5cccnc5N)nc5ccc(-n6cccn6)nc54)ccc32)C1 (single isomer, unassigned) [Example 125, 1-[(3*)-3-{[(1S)-5-[2-(2-aminopyridin-3-yl)-5-(pyrazol-1-yl)imidazo[4,5-b]pyridin-3-yl]-2,3-dihydro-1H-inden-1-yl]amino}piperidin-1-yl]prop-2-en-1-one]",914,3280,292,2110,
"C=CC(=O)N1CCC(N[C@H]2CCc3cc(-n4c(-c5cccnc5N)nc5ccc(-n6cccn6)nc54)ccc32)c2ccccc21 (single isomer, unassigned) [Example 126, 1-[(4*)-4-{[(1S)-5-[2-(2-aminopyridin-3-yl)-5-(pyrazol-1-yl)imidazo[4,5-b]pyridin-3-yl]-2,3-dihydro-1H-inden-1-yl]amino}-3,4-dihydro-2H-quinolin-1-yl]prop-2-en-1-one]",671,8570,> 1000,5050,
"C=CC(=O)N1CCC(N[C@H]2CCc3cc(-n4c(-c5cccnc5N)nc5ccc(-n6cccn6)nc54)ccc32)c2ccccc21 (single isomer, unassigned) [Example 127, 1-[(4*)-4-{[(1S)-5-[2-(2-aminopyridin-3-yl)-5-(pyrazol-1-yl)imidazo[4,5-b]pyridin-3-yl]-2,3-dihydro-1H-inden-1-yl]amino}-3,4-dihydro-2H-quinolin-1-yl]prop-2-en-1-one]",8.17,36.9,9.06,37.1,
"C=CC(=O)N1CC2CC[C@@H]1CC2N[C@H]1CCc2cc(-n3c(-c4cccnc4N)nc4ccc(-n5cccn5)nc43)ccc21 (single isomer, unassigned) [Example 131, 1-[(1R,4R,5*)-5-{[(1S)-5-[2-(2-aminopyridin-3-yl)-5-(pyrazol-1-yl)imidazo[4,5-b]pyridin-3-yl]-2,3-dihydro-1H-inden-1-yl]amino}-2-azabicyclo[2.2.2]octan-2-yl]prop-2-en-1-one]",> 1000,9530,> 1000,,1840
"C=CC(=O)N1CC2CC[C@@H]1CC2N[C@H]1CCc2cc(-n3c(-c4cccnc4N)nc4ccc(-n5cccn5)nc43)ccc21 (single isomer, unassigned) [Example 132, 1-[(1R,4R,5*)-5-{[(1S)-5-[2-(2-aminopyridin-3-yl)-5-(pyrazol-1-yl)imidazo[4,5-b]pyridin-3-yl]-2,3-dihydro-1H-inden-1-yl]amino}-2-azabicyclo[2.2.2]octan-2-yl]prop-2-en-1-one]",326,2250,97.5,1510,
"C=CC(=O)N1CC2CC[C@H]1CC2N[C@H]1CCc2cc(-n3c(-c4cccnc4N)nc4ccc(-n5cccn5)nc43)ccc21 (single isomer, unassigned) [Example 133, 1-[(1S,4S,5*)-5-{[(1S)-5-[2-(2-aminopyridin-3-yl)-5-(pyrazol-1-yl)imidazo[4,5-b]pyridin-3-yl]-2,3-dihydro-1H-inden-1-yl]amino}-2-azabicyclo[2.2.2]octan-2-yl]prop-2-en-1-one]",13.4,47,9.71,16.3,
"C=CC(=O)N1CC2CC[C@H]1CC2N[C@H]1CCc2cc(-n3c(-c4cccnc4N)nc4ccc(-n5cccn5)nc43)ccc21 (single isomer, unassigned) [Example 134, 1-[(1S,4S,5*)-5-{[(1S)-5-[2-(2-aminopyridin-3-yl)-5-(pyrazol-1-yl)imidazo[4,5-b]pyridin-3-yl]-2,3-dihydro-1H-inden-1-yl]amino}-2-azabicyclo[2.2.2]octan-2-yl]prop-2-en-1-one]",232,2710,72.4,1150,
"C=CC(=O)N1C[C@@H]2C[C@H]1CC2N[C@H]1CCc2cc(-n3c(-c4cccnc4N)nc4ccc(-n5cccn5)nc43)ccc21 (single isomer, unassigned) [Example 135, 1-[(1S,4S,5*)-5-{[(1S)-5-[2-(2-aminopyridin-3-yl)-5-(pyrazol-1-yl)imidazo[4,5-b]pyridin-3-yl]-2,3-dihydro-1H-inden-1-yl]amino}-2-azabicyclo[2.2.1]heptan-2-yl]prop-2-en-1-one]",152,478,22.2,,302

# Next, values leading:
IC50 (AKT1 E17K) [nM],IC50 (AKT2) [nM],IC50 (AKT1 WT) [nM],IC50 ([1]; 72 h) [nM],"IC50 ([1]; Homo sapiens, LAPC4, 72 h) [nM]",SMILES
8.87,50.9,7.33,25.3,,"C#CC1CC(N[C@H]2CCc3cc(-n4c(-c5cccnc5N)nc5ccc(-n6cccn6)nc54)ccc32)CCN1C(=O)C=C (single isomer, unassigned) [Example 113, 1-((2*,4*)-4-(((S)-5-(2-(2-aminopyridin-3-yl)-5-(1H-pyrazol-1-yl)-3H-imidazo[4,5-b]pyridin-3-yl)-2,3-dihydro-1H-inden-1-yl)amino)-2-ethynylpiperidin-1-yl)prop-2-en-1-one]"
8.34,21.9,8.56,12.5,,"C#CC1CC(N[C@H]2CCc3cc(-n4c(-c5cccnc5N)nc5ccc(-n6cccn6)nc54)ccc32)CCN1C(=O)C=C (single isomer, unassigned) [Example 114, 1-((2*,4*)-4-(((S)-5-(2-(2-aminopyridin-3-yl)-5-(1H-pyrazol-1-yl)-3H-imidazo[4,5-b]pyridin-3-yl)-2,3-dihydro-1H-inden-1-yl)amino)-2-ethynylpiperidin-1-yl)prop-2-en-1-one]"
9.26,40.4,8.19,40.7,,"C=CC(=O)N1CCC(N[C@H]2CCc3cc(-n4c(-c5cccnc5N)nc5ccc(-n6cccn6)nc54)ccc32)C(OC)C1 (single isomer, unassigned) [Example 115, 1-((3*,4*)-4-(((S)-5-(2-(2-aminopyridin-3-yl)-5-(1H-pyrazol-1-yl)-3H-imidazo[4,5-b]pyridin-3-yl)-2,3-dihydro-1H-inden-1-yl)amino)-3-methoxypiperidin-1-yl)prop-2-en-1-one]"
339,942,32.1,422,,"C=CC(=O)N1CCC(N[C@H]2CCc3cc(-n4c(-c5cccnc5N)nc5ccc(-n6cccn6)nc54)ccc32)C(OC)C1 (single isomer, unassigned) [Example 116, 1-((3*,4*)-4-(((S)-5-(2-(2-aminopyridin-3-yl)-5-(1H-pyrazol-1-yl)-3H-imidazo[4,5-b]pyridin-3-yl)-2,3-dihydro-1H-inden-1-yl)amino)-3-methoxypiperidin-1-yl)prop-2-en-1-one]"
482,780,41.6,557,,"C=CC(=O)N1CCC(N[C@H]2CCc3cc(-n4c(-c5cccnc5N)nc5ccc(-n6cccn6)nc54)ccc32)C(OC)C1 (single isomer, unassigned) [Example 117, 1-((3*,4*)-4-(((S)-5-(2-(2-aminopyridin-3-yl)-5-(1H-pyrazol-1-yl)-3H-imidazo[4,5-b]pyridin-3-yl)-2,3-dihydro-1H-inden-1-yl)amino)-3-methoxypiperidin-1-yl)prop-2-en-1-one]"
42,320,21.3,167,,"C=CC(=O)N1CCC(N[C@H]2CCc3cc(-n4c(-c5cccnc5N)nc5ccc(-n6cccn6)nc54)ccc32)C(OC)C1 (single isomer, unassigned) [Example 118, 1-((3*,4*)-4-(((S)-5-(2-(2-aminopyridin-3-yl)-5-(1H-pyrazol-1-yl)-3H-imidazo[4,5-b]pyridin-3-yl)-2,3-dihydro-1H-inden-1-yl)amino)-3-methoxypiperidin-1-yl)prop-2-en-1-one]"
> 1000,2720,115,> 10000,,"C=CC(=O)N1CCC(N[C@H]2CCc3cc(-n4c(-c5cccnc5N)nc5ccc(-n6cccn6)nc54)ccc32)C[C@H]1COC (single isomer, unassigned) [Example 129, 1-[(2S,4*)-4-{[(1S)-5-[2-(2-aminopyridin-3-yl)-5-(pyrazol-1-yl)imidazo[4,5-b]pyridin-3-yl]-2,3-dihydro-1H-inden-1-yl]amino}-2-(methoxymethyl)piperidin-1-yl]prop-2-en-1-one]"
76.4,672,26.5,174,,"C=CC(=O)N1CCC(N[C@H]2CCc3cc(-n4c(-c5cccnc5N)nc5ccc(-n6cccn6)nc54)ccc32)C[C@H]1COC (single isomer, unassigned) [Example 130, 1-[(2S,4*)-4-{[(1S)-5-[2-(2-aminopyridin-3-yl)-5-(pyrazol-1-yl)imidazo[4,5-b]pyridin-3-yl]-2,3-dihydro-1H-inden-1-yl]amino}-2-(methoxymethyl)piperidin-1-yl]prop-2-en-1-one]"
